Experimental data taken from PMC12049818, “Identification of NUV-244 as a PNPLA3 I148M degrading small molecule” (iScience, 2025).
Where two headings read alike, the source gives them in different places.

Legend:
Huh7 cells = assay: Incucyte growth curves, Huh7; assay type: cell-based, human; conditions: 1μM or 5μM; compared to DMSO
Procedure: Huh7, Huh7 PNPLA3 I148M, Huh7 PNPLA3, Hep3b and LX-2 cells were seeded at a concentration of 1000 cells/well in 60 μl of growth medium on 384-well microtiter plates (Revvity, Waltham, MA, USA, PhenoPlate 384-well microplate, #6057308) and stored in a 37°C incubator with 5% CO2 and 95% humidity overnight. Next day cells were treated with DMSO as control (1% final concentration) or compound (1μM or 5μM final concentration) and cell density was recorded in the Incucyte® life cell imager (Sartorius, Göttingen, Germany) every 4 hours over a period of 5 days. Growth curves were generated by monitoring confluence over time. Proliferative capacity of PNPLA3 I148M-expressing cells was compared to control cells, and the restoration of proliferative fitness was analyzed.

PNPLA3 I148M = biological target: T1, PNPLA3 I148M (Homo sapiens, UniProt Q9NST1, I148M); assay: Huh7 untagged PNPLA3 I148M immunofluorescence on lipid droplets; assay type: cell-based; parameters: host or cells: Huh7; conditions: anti-PNPLA3 IF; representative curve, Figure 3E
T1 sequence (Q9NST1 1-481 I148M): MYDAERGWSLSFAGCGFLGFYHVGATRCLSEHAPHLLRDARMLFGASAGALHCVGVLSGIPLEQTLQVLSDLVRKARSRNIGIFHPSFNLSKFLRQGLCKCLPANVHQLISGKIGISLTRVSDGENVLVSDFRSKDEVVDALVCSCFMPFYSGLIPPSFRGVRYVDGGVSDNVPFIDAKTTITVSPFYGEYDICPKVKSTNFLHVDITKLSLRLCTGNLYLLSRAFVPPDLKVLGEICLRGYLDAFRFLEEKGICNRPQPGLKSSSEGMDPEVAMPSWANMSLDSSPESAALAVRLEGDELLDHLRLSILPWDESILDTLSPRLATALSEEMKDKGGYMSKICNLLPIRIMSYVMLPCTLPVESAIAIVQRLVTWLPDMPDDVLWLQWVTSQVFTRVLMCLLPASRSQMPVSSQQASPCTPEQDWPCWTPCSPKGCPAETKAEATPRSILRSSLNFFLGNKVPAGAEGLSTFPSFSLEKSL
Procedure: Even though C-terminal tagging is reported not to interfere with PNPLA3 localization,[20] we established an assay to exclude the possibility that C-terminal tagging of PNPLA3 with tagRFP could alter PNPLA3 response to NUV-244 on lipid droplets. For this we generated Huh7 cell lines that express untagged variants of PNPLA3 I148M or PNPLA3 WT and visualized PNPLA3 on lipid droplets by immunofluorescence (Figures 3C, 3D, and S3A).
Cells were fixed with 4% paraformaldehyde for 15 minutes at room temperature. Cells were blocked with 0.2 M glycine, 0.1 mg/mL saponin, and 30 mg/mL bovine serum albumin (BSA) (all Sigma Aldrich) in PBS for 1 hour. Cells were washed 1x with washing buffer (0,1 mg/ml saponin + 1 mg/ml Bovine serum albumin) using a Blue Washer (Blue Cat Bio). Mouse anti-human ADPN (PNPLA3, C-8, #sc-390252, Santa Cruz) and rabbit anti-human PNPLA2 (Sigma Aldrich, #HPA055173-25UL) primary antibodies and appropriate secondary antibodies conjugated with Alexa-Fluor 647 (Jackson ImmunoResearch) were used. […]
Images were acquired by an Opera Phenix confocal spinning disc microscope system (Revvity, Waltham, MA, USA) with a 20x or 40x water objective at 405 nm (Hoechst), 488 nm (BODIPY) and 647 nm. Quantification was carried out with the Harmony (Revvity, Waltham, MA, USA) or MetaXpress software (Molecular Devices). […]

PNPLA2 = biological target: T2, PNPLA2 (Homo sapiens, UniProt Q96AD5); assay: Huh7 PNPLA2 immunofluorescence counter assay (PNPLA2 on lipid droplets); assay type: cell-based; parameters: immunofluorescence against endogenous PNPLA2 on lipid droplets in Huh7 cells; endogenous in cells; host or cells: Huh7; conditions: for EC50: read-out: EC50 Huh7, PNPLA2 IF
T2 sequence (Q96AD5 1-504): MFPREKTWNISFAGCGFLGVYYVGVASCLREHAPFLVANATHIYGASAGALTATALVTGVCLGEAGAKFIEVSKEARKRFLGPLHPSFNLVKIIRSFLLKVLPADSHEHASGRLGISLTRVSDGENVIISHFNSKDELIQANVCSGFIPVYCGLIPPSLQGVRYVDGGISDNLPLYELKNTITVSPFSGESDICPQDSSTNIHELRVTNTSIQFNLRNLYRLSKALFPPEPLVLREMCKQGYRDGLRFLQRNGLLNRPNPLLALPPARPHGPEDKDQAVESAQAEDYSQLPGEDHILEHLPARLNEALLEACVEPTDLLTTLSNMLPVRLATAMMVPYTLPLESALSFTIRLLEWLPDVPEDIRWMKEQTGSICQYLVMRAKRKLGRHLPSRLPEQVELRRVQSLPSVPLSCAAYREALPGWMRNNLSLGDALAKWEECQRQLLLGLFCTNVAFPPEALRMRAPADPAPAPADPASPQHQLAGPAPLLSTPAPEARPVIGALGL
Procedure: These efforts led to the identification of NUV-244, a thiazolecarboxamide (Figure 2A).
Cells were fixed with 4% paraformaldehyde for 15 minutes at room temperature. Cells were blocked with 0.2 M glycine, 0.1 mg/mL saponin, and 30 mg/mL bovine serum albumin (BSA) (all Sigma Aldrich) in PBS for 1 hour. Cells were washed 1x with washing buffer (0,1 mg/ml saponin + 1 mg/ml Bovine serum albumin) using a Blue Washer (Blue Cat Bio). Mouse anti-human ADPN (PNPLA3, C-8, #sc-390252, Santa Cruz) and rabbit anti-human PNPLA2 (Sigma Aldrich, #HPA055173-25UL) primary antibodies and appropriate secondary antibodies conjugated with Alexa-Fluor 647 (Jackson ImmunoResearch) were used. All antibodies were diluted in 0.1 mg/ml Saponin + 1 mg/ml Bovine serum albumin. Incubation with primary antibodies was over night at 4°C. Cells were stained simultaneously with the secondary antibody and Hoechst 33342 (final 2 μg/ml, Biotium) for 1h at room temperature in the dark. For Staining of lipid droplets 38 nM BODIPY was used for 30 minutes at room temperature.
Images were acquired by an Opera Phenix confocal spinning disc microscope system (Revvity, Waltham, MA, USA) with a 20x or 40x water objective at 405 nm (Hoechst), 488 nm (BODIPY) and 647 nm. Quantification was carried out with the Harmony (Revvity, Waltham, MA, USA) or MetaXpress software (Molecular Devices). Normalization, quality control, and fitting curves for EC50 determination of tested compounds were performed with Genedata Screener® for high-content screening and Genedata Condoseo modules (Genedata AG, Basel, Switzerland).

EC50 (PNPLA3 I148M): 0.153 µM
effect on PNPLA2 staining on lipid droplets (PNPLA2; 1μM, Huh7): no effect
EC50 (PNPLA2; HTS batch (hit)): > 18 µM
effect on PNPLA2 localization to lipid droplets (PNPLA2; Huh7 cells, dose-response): no effect
EC50 (PNPLA2; resynthesis batch): > 17 µM
EC50 Huh7 PNPLA2 IF (resynthesis) (PNPLA2; resynthesis batch, result in words): no activity
SMILES: Cc1cccc(Cc2nc(C)c(C(=O)Nc3cc(O)ccc3Cl)s2)c1 [NUV-244]
effect on proliferative capacity, Huh7 (Huh7 cells): no effects
